From the supplement of paper PMC10307832

Columns and labels:
Assay in all cases: relative viability (nuclei count vs DMSO), 5 days (fraction); higher = more cells survive
[1] = compound: CN1CCN(CC1)C2=CC(=C(C=C2)NC3=NC(=C(S3)C(=O)C4=C(C=CC=C4Cl)Cl)N)OC [XMD14-99] + C[C@]1(O)C[C@@H](c2nc(-c3ccc4ccc(-c5ccccc5)nc4c3)c3c(N)nccn32)C1 [Linsitinib] (partner 1 µM)
Outline: (§1)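 Dosing by pin tool came one day after lung cancer cell lines were seeded in 1536-well plates, using either one drug or a fixed anchor-drug dose plus five library-drug doses (not always all listed) in √10 steps. After 5 days, nuclei were counted on 4× images. Relative viability is treated-well nuclei count divided by vehicle-well nuclei count, and values are medians of duplicate plates.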

[2] = compound: N[C@@H]1CCCN(c2c(/C=C3\SC(=O)NC3=O)cccc2-c2ccccc2)C1 [AZD1208] + C[C@@H](Oc1cc(-c2cnn(C3CCNCC3)c2)cnc1N)c1c(Cl)ccc(F)c1Cl [Crizotinib] (partner 1 µM)
Outline: as §1

[3] = compound: N[C@@H]1CCCN(c2c(/C=C3\SC(=O)NC3=O)cccc2-c2ccccc2)C1 [AZD1208] + O=C(c1cc(Cc2n[nH]c(=O)c3ccccc23)ccc1F)N1CCN(C(=O)C2CC2)CC1 [Olaparib] (partner 8 µM)
Outline: as §1

[4] = compound: N[C@@H]1CCCN(c2c(/C=C3\SC(=O)NC3=O)cccc2-c2ccccc2)C1 [AZD1208] + Nc1nc2[nH]cc(CCc3ccc(C(=O)N[C@@H](CCC(=O)O)C(=O)O)cc3)c2c(=O)[nH]1 [Pemetrexed] (partner 0.2 µM)
Outline: as §1

Row | Cell Line | relative viability ([1]; first compound 0.08 µM) | relative viability ([1]; first compound 0.8 µM) | relative viability ([1]; first compound 2.53 µM) | relative viability ([1]; first compound 8 µM) | relative viability ([2]; first compound 0.08 µM) | relative viability ([2]; first compound 0.253 µM) | relative viability ([2]; first compound 0.8 µM) | relative viability ([2]; first compound 2.53 µM) | relative viability ([2]; first compound 8 µM) | relative viability ([3]; first compound 0.08 µM) | relative viability ([3]; first compound 0.253 µM) | relative viability ([3]; first compound 0.8 µM) | relative viability ([3]; first compound 2.53 µM) | relative viability ([3]; first compound 8 µM) | relative viability ([4]; first compound 0.08 µM) | relative viability ([4]; first compound 0.253 µM) | relative viability ([4]; first compound 0.8 µM) | relative viability ([4]; first compound 2.53 µM) | relative viability ([4]; first compound 8 µM)
1 | A549 | 0.636 | 0.599 | 0.629 | 0.505 | 0.819 | 0.847 | 0.54 | 0.661 | 0.541 | 0.345 | 0.38 | 0.306 | 0.261 | 0.235 |  |  |  |  | 
2 | NCI-H2170 |  |  |  |  | 1.18 | 1.2 | 1.01 | 1.12 | 0.836 | 0.683 | 0.697 | 0.55 | 0.552 | 0.385 | 0.244 | 0.289 | 0.688 | 0.275 | 0.268
3 | NCI-H727 | 0.303 | 0.284 | 0.247 | 0.297 | 0.795 | 0.863 | 0.819 | 0.789 | 0.703 | 0.793 | 0.556 | 0.917 | 0.743 | 0.734 |  |  |  |  | 
4 | NCI-H1563 | 1.21 | 1.12 | 1.17 | 1.08 | 0.877 | 0.81 | 0.928 | 0.924 | 0.8 |  |  |  |  |  | 0.762 | 0.764 | 0.734 | 0.705 | 0.768
5 | ABC-1 | 0.906 | 0.707 | 0.659 | 0.642 | 1.03 | 1.23 | 1.11 | 1.09 | 1.11 | 0.623 | 0.813 | 0.56 | 1.17 | 0.759 |  |  |  |  | 
